Experimental data taken from paper PMC4979516, “Quinazoline-based tricyclic compounds that regulate programmed cell death, induce neuronal differentiation, and are curative in animal models for excitotoxicity and hereditary brain disease” (Cell Death Discovery, 2015).
Values joined by “and” are separate entries in the source; they are usually repeats but may differ in a detail not shown here. Identical values can stand only once. “Also recorded” adds a separate entry of the source.

Tested on: U118MG cells
Assay: LDH cytotoxicity assay, glutamate-induced cell death of U118MG cells
Details: 35 mM glutamate
Description: (1) For U118MG cells, glutamate at a concentration of 35 mM was applied with or without MGV-1. As discussed, glutamate levels in normal healthy brain tissue can average 15 mM, and these levels can be doubled in diseased brain tissue, whereas in cell organelles glutamate levels can be as high as 250 mM (as discussed). […] In more detail, U118MG cells were seeded, 2×10^5 cells per well of 6-well plates and 6×10^3 cells per well of 96-well plates. Twenty-four hours after seeding, U118MG cells were pretreated with MGV-1 (or one of the other compounds) at various concentrations from 0.1 nM–100 μM. Twenty-four hours after the pretreatment, the cells were exposed to 35 mM of glutamate. […] The negative control was vehicle, that is, ethanol with a final concentration of 1%. […] The positive control was exposure to 35 mM of glutamate alone (with 200 μM of glycine).
Wells of 96-well plates were with 6000 cells per well and treated according the protocol presented above. We used the Cytotoxicity Detection Kit (LDH) (Roche Pharmacuticals) according to the manufacturer’s instructions. When cell plasma membranes are damaged, the cytoplasmic enzyme LDH is released into the medium. The amount of formazan formed is proportional to the amount of LDH released.[77] The resulting color intensity is proportional to the number of damaged cells. Absorbance at 492 nm with reference at 690 nm was measured with the Spectrophotometer Zenyth 200 (Anthos) and the results were calculated and normalized according to the formula presented by the manufacturer.

CN(C)C(=O)Oc1nc(-c2ccccc2)nc2ccccc12 [MGV-1, 2-phenylquinazolin-4-yl dimethylcarbamate]
Protection against glutamate-induced cell death (LDH) (compound 10-100 μM, 24 h pretreatment): protect against lethal effects of glutamate; also recorded: prevented cell death induction
Most effective concentration for protection against cell death (tested 0.1 nM-100 μM): 25 µM and 50 µM
